Test results taken from patent publication US20250339426A1, “GCN2 MODULATOR FOR TREATING CANCER” (HIBERCELL, INC., priority 2022, published 2025).

What was measured:
[1] = system: MOLM-16 xenograft tumors; assay: Metabolomic analysis of MOLM-16 xenograft tumors; format: in vivo, mice; settings: four days
Description: MOLM-16 xenograft tumors were treated with Vehicle or HC-7366 (0.3, 1, 3, 10 or 30 mg/kg) for four days, and snap frozen tumors were collected for metabolomic analysis (n=12). Metabolic analysis was performed at Metabolon on the LC/MS/MS and Polar LC platforms. Data was normalized to Vehicle group and Welch's two-sample t-test was performed for statistical analysis. Heat maps show metabolite levels normalized to vehicle control (FIGS. 90, 94, 102, and 107).

[2] = system: FaDu cells; assay: Metabolomics in wild type and GCN2 CRISPR knockout FaDu cells; format: cell-based, human; settings: 0.1 μM
Description: Wild type and GCN2 CRISPR knockout FaDu cells were treated with 0.1 μM for 9 hours, and metabolomics were evaluated.

[3] = system: Kasumi-1 (human AML cancer cells); assay: In vivo tumor growth inhibition, Kasumi-1 xenograft; design: species or system CB17 SCID mice
Description: Kasumi-1 (human AML cancer cells): Female 6-8 weeks old CB17 SCID mice were inoculated subcutaneously on the right flank with […] tumor cells (1×10^7) in RPMI 1640 without serum for tumor development. The treatments were started when the mean tumor size reached approximately 151 mm^3 at Day 29 after cell inoculation and continued until end of study by twice daily oral gavage dosing of HC-7366 at listed doses (vehicle, 3 mg/kg HC-7366, or 30 mg/kg HC-7366, FIG. 18).
(§1) [formula] • 2.2.2 Tumor Measurements: The measurement of tumor size was conducted three times weekly with a caliper and recorded. The tumor volume (mm^3) was estimated using the formula: TV=a×b^2/2, where “a” and “b” is long and short diameters of a tumor, respectively. Tumor volume was calculated using the formula [tumor volume (mm^3)=π/6×length×width^2).
(§2) Regression was calculated using the formula=100×ΔT/T initial, if ΔT<0. Animals with 0 mm^3 tumor volume (no measurable tumor) for three consecutive measurements were considered as complete responders and animals with 50% tumor regressions were partial responders.

[4] = system: human AML cells of model CTG-2229; assay: AML PDX in vivo study, flow cytometry of blood, spleen, bone marrow; design: species or system NCG mice; settings: 1 mg/kg PO/BID×28, all tissues
Description: Sub-lethally irradiated NCG mice were inoculated with 2×10^6 human AML cells of model CTG-2229. Mice were monitored post AML inoculation to assess human AML engraftment using huCD45/muCD45/huCD33/huCD3 antibodies and BD TruCount™ beads. When individual animals had ≥20% live huCD45 cells in the bone marrow, they were randomized to treatment cohorts. For the efficacy study, animals were administered (n=13/group) with vehicle control, HC-7366 at 1 mg/kg, 10 mg/kg or 30 mg/kg PO/BID×28, or Venetoclax at 100 mg/kg PO/QD×28. Terminal blood, spleen, and bone marrow samples were collected for flow cytometry (FIG. 87). Tolerability was assessed by body weight loss, lethality, and clinical signs of adverse treatment-related side effects. Body weights were measured twice weekly.

[5] = system: KG-1 (human AML cancer cells); assay: In vivo tumor growth inhibition, KG-1 xenograft; design: species or system NOD SCID mice; settings: 1 and 3 mg/kg twice daily oral
Description: KG-1 (human AML cancer cells): Female 6-8 weeks old NOD SCID mice were inoculated subcutaneously on the right flank with KG1 tumor cells (5×10^6) in RPMI 1640 without serum for tumor development. The treatments were started when the mean tumor size reached approximately 194 mm^3 at Day 20 after cell inoculation and continued until end of study by twice daily oral gavage dosing of HC-7366 at listed doses (vehicle, 0.3 mg/kg HC-7366, 1 mg/kg HC-7366, 3 mg/kg HC-7366, 10 mg/kg HC-7366, or 30 mg/kg HC-7366, FIG. 17).
as §1, §2

[6] = system: ATF4, ASNS in FaDu cells; assay: Jess protein analysis, FaDu cells; format: cell-based, human; settings: 0.01 and 0.1 μM, 72 hr, sgControl vs sgGCN2
Description: Cell lysates were obtained from FaDu sgControl or sgGCN2 cells treated with HC-7366 (0, 0.01, 0.1 and 1 μM) for 72 hr. Ice cold 1x radioimmunoprecipitation assay (RIPA) lysis buffer supplemented with protease and phosphatase inhibitors was added to the cell pellets, on ice. After 30 min on ice the cell lysates were centrifuged at 4° C., 12,000 rpm for 15 minutes and the supernatant was collected. Protein concentration was determined using BCA kit. The cell lysates were mixed with 5×SDS loading buffer and denatured at 95° C. for 5 minutes. 1 μg lysate was run on Jess capillary and results were analyzed by compass simple western software. The following primary antibodies were used: p-GCN2 T899 (Abcam #ab75836), GCN2 (Cell Signaling #3302), ATF4 (Cell Signaling #11815) and ASNS (Proteintech #14681). Anti-rabbit secondary antibody was from ProteinSimple #042-206.

[7] = system: ATF4, ASNS, PSAT1 in MOLM-16 cells; assay: Jess protein analysis, MOLM-16 cells; format: cell-based, human; settings: sgControl vs sgGCN2, 24 hr
Description: Cell lysates were obtained from MOLM-16 sgControl or sgGCN2 cells treated with HC-7366 (0, 0.01, 0.1 and 10 μM) for 24 hr. Ice cold 1x radioimmunoprecipitation assay (RIPA) lysis buffer supplemented with protease and phosphatase inhibitors was added to the cell pellets, on ice. After 30 min on ice, the cell lysates were centrifuged at 4° C., 12,000 rpm for 15 minutes and the supernatant collected. Protein concentration was determined using BCA kit. The cell lysates were mixed with 5× sodium dodecyl sulfate (SDS) loading buffer and denatured at 95° C. for 5 minutes. 1 μg lysate was run on Jess capillary and results were analyzed by compass simple western software.

For `CNC(=O)c1ncn2cc(-c3c(F)ccc(NS(=O)(=O)c4cc(Cl)cnc4OC)c3F)ncc12` [HC-7366, 6-(3-((5-chloro-2-methoxypyridine)-3-sulfonamido)-2,6-difluorophenyl)-N-methylimidazo[1,5-a]pyrazine-1-carboxamide], the “aspartate and cysteine levels” value ([1]; 0.3-30 mg/kg) was “decreased”, the “glutathione levels (GSH and GSSG)” value ([1]; 0.3-30 mg/kg) was “significantly reduced” and the “levels of most amino acids” value ([1]; 0.3-30 mg/kg) was “significantly elevated”. The “metabolites involved in pyrimidine synthesis” value ([1]; 0.3-30 mg/kg) was “significantly reduced”, the γ-glutamyl-amino acids ([1]; 0.3-30 mg/kg) was “enhanced” and the “aspartate metabolism and polyamine-related metabolites (putrescine, spermine, MTA)” value ([1]; all doses) was “significantly reduced”. For the same molecule, the ATF4 ([2]; GCN2 dependent manner) was “induced”, the “level of many amino acids” value ([2]; wild type FaDu cells, 9 h, GCN2-dependent) was “enhanced level” and the TGI ([3]; 3 mg/kg twice daily oral) was 73%. The TGI ([3]; 30 mg/kg twice daily oral) was 77%, the “myeloid restricted precursor (CD34+CD33+) and mature myeloid cells (CD34−CD33+)” value [4] was “significantly decreased” and the “effect on tumor growth” value [5] was “tumor stasis”. For the same molecule, the “levels of ATF4 and ASNS” value [6] was “GCN2-dependent increase” and the “levels of ATF4, ASNS and PSAT1” value [7] was “GCN2-dependent increase”.
